Experimental data reported in ChEMBL document CHEMBL4052827, “Discovery of Tetrahydroisoquinoline-Containing CXCR4 Antagonists with Improved in Vitro ADMET Properties” (J Med Chem, 2018).

Tests used:
[1] = Agonist activity at mAChR in human CCRF-CEM cells assessed as induction of Ca2+ flux measured for 90 secs by calcium dye-based fluorescence assay; format: cell-based
[2] = target: T1, C-X-C chemokine receptor type 4 (Homo sapiens, UniProt P61073); assay: Agonist activity at CXCR4 in human CCRF-CEM cells assessed as induction of Ca2+ flux measured for 90 secs by calcium dye-based fluorescence assay; format: functional, cell-based
[3] = target: T1, C-X-C chemokine receptor type 4; assay: Antagonist activity at human CXCR4 in CCRF-CEM cells assessed as decrease in SDF-1alpha stimulated Ca2+ flux preincubated for 25 mins followed by SDF-1alpha addition measured for 90 secs by calcium dye-based fluorescence assay; format: functional, cell-based
[4] = Antagonist activity at mAChR in human CCRF-CEM cells assessed as decrease in acetylacholine-stimulated Ca2+ flux preincubated for 25 mins followed by acetylacholine addition measured for 90 secs by calcium dye-based fluorescence assay; format: cell-based
[5] = Metabolic stability in human liver microsomes assessed as parent compound remaining at 0.5 uM after 10 mins in presence of NADPH by LC-MS/MS analysis
Cytochrome P450 2D6 = Cytochrome P450 2D6 (Homo sapiens, UniProt P10635); assay: Inhibition of recombinant human CYP2D6 expressed in microsomes of insect cells using AMMC as substrate preincubated for 30 mins followed by NADP addition after 45 mins by fluorescence analysis
[6] = Permeability of the compound at pH 7.4 at 100 uM after 4 hrs by PAMPA
[7] = Metabolic stability in mouse liver microsomes assessed as parent compound remaining at 0.5 uM after 10 mins in presence of NADPH by LC-MS/MS analysis
[8] = Permeability of the compound at pH 5.5 at 100 uM after 4 hrs by PAMPA

Chain of Cytochrome P450 2D6 (P10635 whole entry): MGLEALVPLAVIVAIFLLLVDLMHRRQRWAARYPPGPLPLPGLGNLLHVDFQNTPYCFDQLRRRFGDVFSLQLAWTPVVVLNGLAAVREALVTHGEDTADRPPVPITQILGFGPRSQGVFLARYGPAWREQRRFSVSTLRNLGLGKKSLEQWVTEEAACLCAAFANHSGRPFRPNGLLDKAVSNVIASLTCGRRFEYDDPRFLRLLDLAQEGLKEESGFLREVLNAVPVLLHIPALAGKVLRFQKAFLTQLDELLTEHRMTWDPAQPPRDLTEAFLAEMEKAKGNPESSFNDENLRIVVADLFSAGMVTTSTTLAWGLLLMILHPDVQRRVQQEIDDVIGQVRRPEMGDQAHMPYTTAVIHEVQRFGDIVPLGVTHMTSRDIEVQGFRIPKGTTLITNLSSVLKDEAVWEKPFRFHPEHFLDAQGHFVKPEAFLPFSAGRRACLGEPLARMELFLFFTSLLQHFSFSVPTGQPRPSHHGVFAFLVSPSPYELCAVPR
T1 sequence (P61073 whole entry): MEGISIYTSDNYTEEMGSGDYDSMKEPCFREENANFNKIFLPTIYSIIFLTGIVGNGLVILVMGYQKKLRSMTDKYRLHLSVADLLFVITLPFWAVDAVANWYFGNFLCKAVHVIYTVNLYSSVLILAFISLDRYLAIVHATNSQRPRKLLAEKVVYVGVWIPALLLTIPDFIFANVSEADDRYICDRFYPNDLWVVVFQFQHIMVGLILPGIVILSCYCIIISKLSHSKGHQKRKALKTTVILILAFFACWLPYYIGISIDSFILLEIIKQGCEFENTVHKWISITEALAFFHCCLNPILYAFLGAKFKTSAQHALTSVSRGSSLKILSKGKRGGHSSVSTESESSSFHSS

Compound | EC50 [1] [µM] | EC50 [2] [µM] | IC50 [3] [µM] | IC50 [4] [µM] | remaining at 10 min, 0.5 µM [5] [%] | IC50 (Cytochrome P450 2D6) [µM] | Papp at 4 h, 100 µM [6] [×10⁻⁶ cm/s] | remaining at 10 min, 0.5 µM [7] [%] | Papp at 4 h, 100 µM [8] [×10⁻⁶ cm/s]
FC1(F)CCC(NCCCCN(C[C@H]2Cc3ccccc3CN2)[C@H]2CCCc3cccnc32)CC1 | > 30 | > 30 | 0.00371 | 28.2 |  |  |  |  | 
c1ccc2c(c1)CN[C@@H](CN(Cc1ccc(CNCC3CCOCC3)cc1)[C@H]1CCCc3cccnc31)C2 | > 30 |  |  | > 16.7 |  |  |  |  | 
c1ccc2c(c1)CN[C@@H](CN(Cc1ccc(CNCc3ccncc3)cc1)[C@H]1CCCc3cccnc31)C2 | > 30 | > 30 |  | 12.2 | 0.882 | 0.084 | 38.5 | 4.39 | 
c1ccc2c(c1)CN[C@@H](CN(CCCCNCc1ccncc1)[C@H]1CCCc3cccnc31)C2 | > 30 | > 30 | 0.0227 | > 33.3 | 1.92 | 0.145 |  | 6.44 | 0.65
c1cncc(CNCCCCN(C[C@H]2Cc3ccccc3CN2)[C@H]2CCCc3cccnc32)c1 | > 30 | > 30 | 0.0153 | 19.9 | 21.4 | 0.217 |  | 10.2 | 
NCc1ccc(CN(C[C@H]2Cc3ccccc3CN2)[C@H]2CCCc3cccnc32)cc1 | > 30 |  |  | > 33.3 |  |  |  |  | 
FC1(F)CCC(CNCCCCN(C[C@H]2Cc3ccccc3CN2)[C@H]2CCCc3cccnc32)CC1 | > 30 | > 30 | 0.168 | > 16.7 |  |  |  |  | 
c1ccc(CNCc2ccc(CN(C[C@H]3Cc4ccccc4CN3)[C@H]3CCCc4cccnc43)cc2)nc1 | > 30 | > 30 |  | 6.94 | 1.77 | 0.377 |  | 11.6 | 1.6
FC1(F)CCC(NCc2ccc(CN(C[C@H]3Cc4ccccc4CN3)[C@H]3CCCc4cccnc43)cc2)CC1 | > 30 | > 30 |  | > 16.7 | 10.8 | 0.577 | 0.5 | 30.2 | 
c1ccc2c(c1)CN[C@@H](CN(CCCCNCC1CCNCC1)[C@H]1CCCc3cccnc31)C2 | > 30 | > 30 | 0.0365 | > 16.7 | 84.6 | 2.53 |  | 37.9 | 
c1ccc2c(c1)CN[C@@H](CN(CCCCNC1CCOCC1)[C@H]1CCCc3cccnc31)C2 | > 30 | > 30 | 0.0294 | > 33.3 | 53 | 0.657 |  | 55.8 | 
c1ccc2c(c1)CN[C@@H](CN(CCCCNC1CCCCC1)[C@H]1CCCc3cccnc31)C2 | > 30 | > 30 | 0.0752 | > 33.3 | 46.1 | 0.524 |  | 43.8 | 1.45
c1ccc(CNCCCCN(C[C@H]2Cc3ccccc3CN2)[C@H]2CCCc3cccnc32)cc1 | > 30 | > 30 | 0.0201 | 3.43 | 71.7 | 0.141 |  | 31.2 | 
CC1(C)CCC(NCc2ccc(CN(C[C@H]3Cc4ccccc4CN3)[C@H]3CCCc4cccnc43)cc2)CC1 | > 30 | > 30 |  | 8.76 | 14.9 | 0.258 |  | 23.2 | 
c1ccc2c(c1)CN[C@@H](CN(Cc1ccc(CNC3CCOCC3)cc1)[C@H]1CCCc3cccnc31)C2 | > 30 | > 30 |  | > 16.7 | 20.4 | 0.507 | 9.2 | 34.8 | 
c1cncc(CNCc2ccc(CN(C[C@H]3Cc4ccccc4CN3)[C@H]3CCCc4cccnc43)cc2)c1 | > 30 |  |  | 21.4 |  |  |  |  | 
c1ccc2c(c1)CN[C@@H](CN(CCCCNCC1CCOCC1)[C@H]1CCCc3cccnc31)C2 | > 30 | > 30 | 0.0529 | > 33.3 | 57.6 | 2.72 |  | 48.5 | 0.6
c1ccc(CN(CCCCN(C[C@H]2Cc3ccccc3CN2)[C@H]2CCCc3cccnc32)Cc2ccccc2)cc1 | > 30 | > 30 | > 16.7 | > 33.3 | 4.84 | 0.494 |  | 0.298 | 3.9
CC(C)(CCN(C[C@H]1Cc2ccccc2CN1)[C@H]1CCCc2cccnc21)CNCC1CCOCC1 | > 30 | > 30 | 0.0438 | 13 | 46.1 | 1.75 |  | 60.3 | 6.2
C(=C\CN(C[C@H]1Cc2ccccc2CN1)[C@H]1CCCc2cccnc21)/CNCc1ccncc1 | > 30 |  |  | > 16.7 |  |  |  |  | 
O=S1(=O)CCC(CNCCCCN(C[C@H]2Cc3ccccc3CN2)[C@H]2CCCc3cccnc32)CC1 | > 30 | > 30 | 0.017 | > 16.7 | 74 | 1.17 |  | 39.3 | 
NCc1cccc(CN(C[C@H]2Cc3ccccc3CN2)[C@H]2CCCc3cccnc32)c1 | > 30 | > 30 |  | 25.7 | 97.3 | 0.032 |  | 89.2 | 
O=S1(=O)CCC(NCCCCN(C[C@H]2Cc3ccccc3CN2)[C@H]2CCCc3cccnc32)CC1 | > 30 | > 30 | 0.0455 | > 33.3 | 11.7 | 0.853 |  | 17.6 | 
C(=C\CN(C[C@H]1Cc2ccccc2CN1)[C@H]1CCCc2cccnc21)/CNCc1cccnc1 | > 30 | > 30 |  | 35.1 | 1.84 | 0.453 | 24.4 | 0.953 | 
c1ccc(CNCCCCN(C[C@H]2Cc3ccccc3CN2)[C@H]2CCCc3cccnc32)nc1 | > 30 |  |  | > 30 |  |  |  |  | 
c1ccc2c(c1)CN[C@@H](CN(CCCCNCC1CCSCC1)[C@H]1CCCc3cccnc31)C2 | > 30 | > 30 | 0.0696 | > 16.7 | 49.4 | 0.629 |  | 2.82 | 
c1ccc2c(c1)CN[C@@H](CN(CCCCNC1CCNCC1)[C@H]1CCCc3cccnc31)C2 | > 30 | > 30 | 0.0634 | > 33.3 | 100 | 2.61 |  | 38 | 1.9
